How the values were obtained:
Type in all cases: cell-based
[1] = biological target: T1, AGTR1 (Homo sapiens, UniProt P30556); experiment: DiscoveRx β-arrestin2 recruitment assay (enzyme complementation, Pathunter CHO-K1 AGTR1 β-arrestin cell line); settings: DiscoveRx β-arrestin2 recruitment; for DiscoveRx β-arrestin2 Ymax (%): maximal response
T1 construct: host or cells: Pathunter CHO-K1 AGTR1 β-arrestin cell line (CHO-K1)
T1 sequence (P30556 1-359): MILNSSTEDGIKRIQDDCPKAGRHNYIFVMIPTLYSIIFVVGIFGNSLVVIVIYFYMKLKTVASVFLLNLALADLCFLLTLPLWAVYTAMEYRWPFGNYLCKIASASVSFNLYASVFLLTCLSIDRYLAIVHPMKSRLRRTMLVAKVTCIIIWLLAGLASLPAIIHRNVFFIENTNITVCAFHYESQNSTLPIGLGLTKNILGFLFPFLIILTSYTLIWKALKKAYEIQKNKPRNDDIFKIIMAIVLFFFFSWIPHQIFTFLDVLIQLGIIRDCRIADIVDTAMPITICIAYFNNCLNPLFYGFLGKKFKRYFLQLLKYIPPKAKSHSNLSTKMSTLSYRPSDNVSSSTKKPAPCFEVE
Description: In one aspect of the invention, signaling bias of compounds was assessed by comparing the relative activity of compounds to activate both the β-arrestin and Gq signaling pathways. In order to confirm signaling bias, compounds were studied in two different assay formats. DiscoveRx β-arrestin2 Recruitment and IP1 Assays β-arrestin2 recruitment to activated receptors can be assessed using an enzyme complementation method (Zhao, Jones et al. 2008). […] Cells (5000/well) were plated into 1536 well plates (Cellocoat plates, Greiner Bio One, Monroe, NC) 14-16 hours before each experiment in 20 μl DMEM/F12 medium (Thermo-Fisher Scientific, Carlsbad, CA) containing heat-inactivated 1% fetal bovine serum. Subsequently, the compounds of interest were added at varying concentrations to the wells in a volume of 200 nl and the cells incubated for 90 min at 37° C. The detection reagent (10 μl) was added to each well and the plates incubated at room temperature for 1 hour before measurement of chemiluminescence using an EnVision Multilabel Reader (Perkin-Elmer, Waltham, MA). The data are processed using Toolset for Runmaster QCMulti. Concentration-response curves are fitted and EC50s (agonist mode) and IC50s (antagonist mode) estimated using a 4-parameter logistic equation. Compound activities are reported as a relative percentage to the maximal effect of All in the assays.

[2] = biological target: T1, AGTR1; experiment: DiscoveRx IP1 accumulation assay (HTRF), agonist mode, Pathunter CHO-K1 AGTR1 β-arrestin cell line; settings: for EC50: read-out: IP-1 EC50
Description: In one aspect of the invention, signaling bias of compounds was assessed by comparing the relative activity of compounds to activate both the β-arrestin and Gq signaling pathways. In order to confirm signaling bias, compounds were studied in two different assay formats.
DiscoveRx β-arrestin2 Recruitment and IP1 Assays
Gq activation can be assessed by measuring the accumulation of inositol phosphates (e.g. IP3, IP1) that are liberated following activation of phospholipase C by Gq (Thomsen, Frazer et al. 2005). In the current invention we have utilized the DiscoveRx Pathunter CHO-K1 AGTR1 β-arrestin cell line to also measure IP1 accumulation in response to compounds. IP1 accumulation was measured in both agonist and antagonist modes. In agonist mode, cells are plated as above 14-16 hours before the experiment. The medium is then removed and compounds at varying concentrations added in a final volume of 20 μl. The cells are incubated at 37° C. for 90 min. IP1 accumulation detected using a commercial HTRF assay according to manufacturer's instructions (Cisbio, Bedford, MA). Specifically, 4 μl of D2-conjugate solution (diluted 1:20 in Cisbio HTRF assay buffer) is added to each well, followed by the addition of 4 μl of anti-IP1 cryptate diluted 1:20 in HTRF assay buffer and the plates incubated for 20 min at room temperature. 14 μl from each well is measured using an Envision multi-label reader and data processed using Toolset for Runmaster QCMulti. Concentration-response curves are fitted and EC50s (agonist mode) and IC50s (antagonist mode) estimated using a 4-parameter logistic equation. Compound activities are reported as a relative percentage to the maximal effect of All in the assays.

[3] = biological target: T2, hAT1R (Homo sapiens, UniProt P30556); experiment: BRET β-arrestin2 biosensor assay, higher receptor expression (hAT1R 5 ng/well), HEK293 cells; settings: for EC50: High AT1R Expression
T2 sequence (P30556 1-359): T1 sequence (P30556 1-359)

Row | SMILES | EC50 [1] | DiscoveRx β-arrestin2 Ymax (%) [1] | IP-1 Ymax (%) [2] | EC50 [2] | BRET β-Arrestin2 High AT1R Expression Ymax (%) [3] | EC50 [3]
1 | CCc1nc2c(C)cc(C)nc2n1Cc1ccc(-c2cc(C3CCCO3)ccc2-c2nn[nH]n2)cc1 (single isomer, unassigned) [Example 73, 2-ethyl-5,7-dimethyl-3-((5′-(tetrahydrofuran-2-yl)-2′-(2H-tetrazol-5-yl)-[1,1′-biphenyl]-4-yl)methyl)-3H-imidazo[4,5-b]pyridine] | 108 nM | 26.4% | 11.6% | 5940 nM | – | –
2 | CCc1nc2c(C)cc(C)nc2n1Cc1ccc(-c2cc(C3CCCO3)ccc2-c2nn[nH]n2)cc1 (single isomer, unassigned) [Example 74, 2-ethyl-5,7-dimethyl-3-((5′-(tetrahydrofuran-2-yl)-2′-(2H-tetrazol-5-yl)-[1,1′-biphenyl]-4-yl)methyl)-3H-imidazo[4,5-b]pyridine] | 391 nM | 3.9% | – | > 100000 nM | 3.2% | > 100000 nM
3 | CCc1nc2c(C)cc(C)nc2n1Cc1ccc(-c2cc(C3CCCCN3)ccc2-c2nn[nH]n2)cc1 (single isomer, unassigned) [Example 75, 2-ethyl-5,7-dimethyl-3-((5′-(piperidin-2-yl)-2′-(2H-tetrazol-5-yl)-[1,1′-biphenyl]-4-yl)methyl)-3H-imidazo[4,5-b]pyridine] | 543 nM | 7.1% | – | > 100000 nM | 53.9% | 1120 nM
4 | CCc1nc2c(C)cc(C)nc2n1Cc1ccc(-c2cc(C3CCCCN3)ccc2-c2nn[nH]n2)cc1 (single isomer, unassigned) [Example 76, 2-ethyl-5,7-dimethyl-3-((5′-(piperidin-2-yl)-2′-(2H-tetrazol-5-yl)-[1,1′-biphenyl]-4-yl)methyl)-3H-imidazo[4,5-b]pyridine] | 840 nM | 13.2% | – | > 100000 nM | – | –
5 | CCCC1=NC2(CCOC2)C(=O)N1Cc1ccc(-c2cc(-c3ccccc3)ccc2-c2nn[nH]n2)cc1 (single isomer, unassigned) [Example 158, 3-((6′-(2H-tetrazol-5-yl)-[1,1′:3′,1″-terphenyl]-4-yl)methyl)-2-propyl-7-oxa-1,3-diazaspiro[4.4]non-1-en-4-one] | 191 nM | 41.6% | 8.6% | 214 nM | – | –
6 | CCc1nc2c(C)cc(C)nc2n1Cc1ccc(-c2cc(-c3ccc(N(C)C)cc3)ccc2-c2nn[nH]n2)cc1 [Example 15] | 22.6 nM | 14.9% | 2.4% | 21.7 nM | – | –
7 | CCc1nc2c(C)cc(C)nc2n1Cc1ccc(-c2cc(-c3ccc4c(ccn4C)c3)ccc2-c2nn[nH]n2)cc1 [Example 17] | 15.7 nM | 11.9% | 3.3% | 8.7 nM | – | –
8 | CCc1nc2c(C)cc(C)nc2n1Cc1ccc(-c2cc(-c3ccc(C)cc3)ccc2-c2nn[nH]n2)cc1 [Example 18] | 140 nM | 54.2% | 15.4% | 499 nM | – | –
9 | CCc1nc2c(C)cc(C)nc2n1Cc1ccc(-c2cc(Nc3ccc(F)cc3)ccc2-c2nn[nH]n2)cc1 [Example 26, 4′-((2-ethyl-5,7-dimethyl-3H-imidazo[4,5-b]pyridin-3-yl)methyl)-N-(4-fluorophenyl)-6-(2H-tetrazol-5-yl)-[1,1′-biphenyl]-3-amine] | 10.8 nM | 25.0% | 7.5% | 24.2 nM | – | –
10 | CCc1nc2c(C)cc(C)nc2n1Cc1ccc(-c2cc(N3CCCC3=O)ccc2-c2nn[nH]n2)cc1 [Example 28, 1-(4′-((2-ethyl-5,7-dimethyl-3H-imidazo[4,5-b]pyridin-3-yl)methyl)-6-(2H-tetrazol-5-yl)-[1,1′-biphenyl]-3-yl)pyrrolidin-2-one] | 322 nM | 11.9% | 2.3% | 3780 nM | – | –
11 | CCc1nc2c(C)cc(C)nc2n1Cc1ccc(-c2cc(-c3ccsc3)ccc2-c2nn[nH]n2)cc1 [Example 55] | 9.3 nM | 44.9% | 6.8% | 26.8 nM | – | –
12 | CCc1nc2c(C)cc(C)nc2n1Cc1ccc(-c2cc(N3CCC[C@@H](C)C3)ccc2-c2nn[nH]n2)cc1 [Example 86] | 159 nM | 38.0% | – | > 100000 nM | – | –
13 | CCc1nc2c(C)cc(C)nc2n1Cc1ccc(-c2cc(N3CCC[C@H](C)C3)ccc2-c2nn[nH]n2)cc1 [Example 88] | 8.1 nM | 22.1% | – | > 100000 nM | – | –
14 | CCc1nc2c(C)cc(C)nc2n1Cc1ccc(-c2cc(N3CC[C@H](C)C3)ccc2-c2nn[nH]n2)cc1 [Example 89] | 49.4 nM | 22.5% | – | > 100000 nM | – | –
15 | CCc1nc2c(C)cc(C)nc2n1Cc1ccc(-c2cc(N3CCCCCC3)ccc2-c2nn[nH]n2)cc1 [Example 95, 3-((5′-(azepan-1-yl)-2′-(2H-tetrazol-5-yl)-[1,1′-biphenyl]-4-yl)methyl)-2-ethyl-5,7-dimethyl-3H-imidazo[4,5-b]pyridine] | 137 nM | 21.0% | 6.3% | 249 nM | – | –
16 | CCCCC1=NC2(CCCC2)C(=O)N1Cc1ccc(-c2cc(N3CCC(C)(C)CC3)ccc2-c2nn[nH]n2)cc1 [Example 101] | 30 nM | 21.4% | – | > 100000 nM | – | –
17 | CCCCC1=NC2(CCCC2)C(=O)N1Cc1ccc(-c2cc(N3CCC(C)C3)ccc2-c2nn[nH]n2)cc1 (stereo not drawn) [Example 103] | 112 nM | 8.8% | – | > 100000 nM | – | –
18 | CCCCC1=NC2(CCCC2)C(=O)N1Cc1ccc(-c2cc(N3CC4(CC4)c4ccccc43)ccc2-c2nn[nH]n2)cc1 [Example 108] | 42.3 nM | 38.8% | 12.8% | 219 nM | – | –
19 | CCCCC1=NC2(CCCC2)C(=O)N1Cc1ccc(-c2cc(-c3cncc(OC)c3)ccc2-c2nn[nH]n2)cc1 [Example 132] | 87.2 nM | 14.1% | – | – | 22.0% | 496 nM
20 | CCCCC1=NC2(CCCC2)C(=O)N1Cc1ccc(-c2cc(-c3ccccn3)ccc2-c2nn[nH]n2)cc1 [Example 140] | 9.7 nM | 22.1% | 4.5% | 26.1 nM | – | –
21 | CCc1nc2c(C)cc(C)nc2n1Cc1ccc(-c2cc(-c3ccccc3)ccc2C(=O)O)nc1 [Example 201, 3-(5-((2-ethyl-5,7-dimethyl-3H-imidazo[4,5-b]pyridin-3-yl)methyl)pyridin-2-yl)biphenyl-4-carboxylic acid] | 348 nM | 7.0% | 5.6% | 454 nM | – | –
22 | CCCCc1nc(Cl)c(C(=O)O)n1Cc1ccc(-c2cc(N3CCc4ccccc43)ccc2-c2noc(=O)[nH]2)cc1 [Example 406, 2-butyl-4-chloro-1-((5′-(indolin-1-yl)-2′-(5-oxo-4,5-dihydro-1,2,4-oxadiazol-3-yl)-[1,1′-biphenyl]-4-yl)methyl)-1H-imidazole-5-carboxylic acid] | 9 nM | 33.9% | – | – | 97.5% | 10.6 nM

— patent US12037324B2, “Biarylmethyl heterocycles” (Université de Montréal, priority 2016, dated 2024)
